Reference: US9737542B2, “Pyrrolotriazine kinase inhibitors” (BRISTOL-MYERS SQUIBB COMPANY, priority 2013, dated 2017)

What follows are compounds tested on mice (pain response, formalin paw test) (assay: formalin paw test). Settings: 60 mg/kg sc; % response relative to gabapentin 200 mg/kg.
Format: in vivo, mouse
Method: AAK1 homozygous (−/−) and their wild-type (+/+) littermates were tested using the formalin paw test in order to assess their acute and tonic nociceptive responses. For these tests, Automatic Nociception Analyzers (purchased from the Ozaki lab at University of California, San Diego) were used. A metal band was placed around the left hind paw of each mouse 30 minutes prior to testing. After the 30-minute acclimation period, 20 μl of 5% formalin is subcutaneously injected in the dorsal surface of the left hind paw. Mice were individually housed in cylindrical chambers for 45 minutes. Fresh 5% formalin solution was prepared by diluting formaldehyde (Formalde-fresh 20%, Fisher Scientific, Fair Lawn, N.J.) with distilled water. Investigatory compounds were administered 30 minutes prior to formalin injection.
A computer recorded flinches per minute, total flinches for phase I (acute phase=first 8 minutes), and total flinches for phase II (tonic phase=time between minutes 20-40 or 10-60 minutes for drug studies) through an electromagnetic field. See Yaksh T L, Ozaki G, McCumber D, Rathbun M, Svensson C, Malkmus S, Yaksh M C. An automated flinch detecting system for use in the formalin nociceptive bioassay. J Appl Physiol., 2001; 90:2386-402.
The same test was used to confirm that the administration of an AAK1 inhibitor can also affect pain response. […]

Which Response does the source give for `CC(C)c1nc(-c2cccc(NC(=O)c3cnc4ccc(NC5CCC(N)CC5)nn34)c2)no1` [6-(((1R,4R)-4-aminocyclohexyl)amino)-N-(3-(5-isopropyl-1,2,4-oxadiazol-3-yl)phenyl)imidazo[1,2-b]pyridazine-3-carboxamide] here?
Its Response is 59%.

Same assay, conditions: 200 mg/kg sc; % response relative to gabapentin 200 mg/kg

Which Response does the source give for `NCC1(CC(=O)O)CCCCC1` [Gabapentin, reference compound] here?
The Response was 73%.

These compounds were tested against GST-Xa-hAAK1 (Homo sapiens (Human), UniProt Q2M2I8) (assay: AAK1 Kinase Assay). Settings: ATP 22 μM; 3 hours at room temperature.
Format: biochemical
Method: The assays were performed in U-bottom 384-well plates. […] The reactions were initiated by the combination of bacterially expressed, GST-Xa-hAAK1 with substrates and test compounds. The reactions were incubated at room temperature for 3 hours and terminated by adding 60 μl of 35 mM EDTA buffer to each sample. The reactions were analyzed on the Caliper LabChip 3000 (Caliper, Hopkinton, Mass.) by electrophoretic separation of the fluorescent substrate and phosphorylated product. Inhibition data were calculated by comparison to EDTA quenched control reactions for 100% inhibition and vehicle-only reactions for 0% inhibition. […] Dose response curves were generated to determine the concentration required inhibiting 50% of kinase activity (IC50). Compounds were dissolved at 10 mM in dimethylsulfoxide (DMSO) and evaluated at eleven concentrations. IC50 values were derived by non-linear regression analysis.

Chain of GST-Xa-hAAK1 (Q2M2I8 whole entry): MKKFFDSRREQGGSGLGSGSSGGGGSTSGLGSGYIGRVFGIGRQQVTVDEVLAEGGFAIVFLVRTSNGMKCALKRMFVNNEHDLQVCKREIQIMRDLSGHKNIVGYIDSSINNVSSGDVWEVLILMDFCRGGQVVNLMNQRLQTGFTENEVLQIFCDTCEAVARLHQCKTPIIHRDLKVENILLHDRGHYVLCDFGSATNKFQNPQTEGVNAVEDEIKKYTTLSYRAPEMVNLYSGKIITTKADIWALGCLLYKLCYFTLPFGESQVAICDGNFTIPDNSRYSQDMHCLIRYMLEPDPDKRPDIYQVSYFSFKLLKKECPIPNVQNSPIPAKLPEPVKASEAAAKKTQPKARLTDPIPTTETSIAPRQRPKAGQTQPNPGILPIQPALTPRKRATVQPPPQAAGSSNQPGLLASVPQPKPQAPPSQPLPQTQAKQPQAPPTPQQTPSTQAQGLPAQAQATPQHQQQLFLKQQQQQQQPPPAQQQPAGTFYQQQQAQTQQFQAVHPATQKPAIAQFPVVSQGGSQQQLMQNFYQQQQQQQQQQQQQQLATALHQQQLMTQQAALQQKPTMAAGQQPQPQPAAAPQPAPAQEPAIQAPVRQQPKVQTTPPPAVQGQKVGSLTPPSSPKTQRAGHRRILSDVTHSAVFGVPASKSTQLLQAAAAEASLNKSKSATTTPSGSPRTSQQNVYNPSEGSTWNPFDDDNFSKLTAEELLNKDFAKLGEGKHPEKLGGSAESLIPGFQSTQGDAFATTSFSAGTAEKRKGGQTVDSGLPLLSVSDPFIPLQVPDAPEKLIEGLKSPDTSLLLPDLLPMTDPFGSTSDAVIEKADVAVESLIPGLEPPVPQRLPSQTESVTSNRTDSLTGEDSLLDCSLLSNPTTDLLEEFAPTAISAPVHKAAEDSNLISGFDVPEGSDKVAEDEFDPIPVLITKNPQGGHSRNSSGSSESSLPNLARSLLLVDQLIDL

How did the IC50 turn out when `CC(C)n1nnc(-c2cccc(Nc3ncnn4ccc(C(=O)NCC5CC5)c34)c2)n1` [Example 105, N-(cyclopropylmethyl)-4-((3-(2-isopropyl-2H-tetrazol-5-yl)phenyl)amino)pyrrolo[2,1-f][1,2,4]triazine-5-carboxamide] was run?
Its IC50 is 785 nM.

For `CC(C)NC(=O)c1ccn2ncnc(Nc3cccc(-c4nnn(C(C)C)n4)c3)c12` [Example 106, N-isopropyl-4-((3-(2-isopropyl-2H-tetrazol-5-yl)phenyl)amino)pyrrolo[2,1-f][1,2,4]triazine-5-carboxamide], which IC50 is on record?
The IC50 was 2350 nM.

How did the IC50 turn out when `CC(C)n1nnc(-c2cccc(Nc3ncnn4ccc(C(=O)NCC#N)c34)c2)n1` [Example 107, N-(cyanomethyl)-4-((3-(2-isopropyl-2H-tetrazol-5-yl)phenyl)amino)pyrrolo[2,1-f][1,2,4]triazine-5-carboxamide] was run?
Its IC50 is 469 nM.

Which IC50 does the source give for `COCCNC(=O)c1ccn2ncnc(Nc3cccc(-c4nnn(C(C)C)n4)c3)c12` [Example 108, 4-((3-(2-isopropyl-2H-tetrazol-5-yl)phenyl)amino)-N-(2-methoxyethyl)pyrrolo[2,1-f][1,2,4]triazine-5-carboxamide] here?
The IC50 was 289 nM.

How did the IC50 turn out when `CC(C)n1nnc(-c2cccc(Nc3ncnn4ccc(C(=O)N5CCC(N)CC5)c34)c2)n1` [Example 109, (4-aminopiperidin-1-yl)(4-((3-(2-isopropyl-2H-tetrazol-5-yl)phenyl)amino)pyrrolo[2,1-f][1,2,4]triazin-5-yl)methanone] was run?
Its IC50 is 4770 nM.

Which IC50 does the source give for `CC(C)C[C@@H](N)C(=O)Nc1cccc(Nc2ncnn3ccc(C(=O)N4CCC(N)CC4)c23)c1` [Example 110, (R)-2-amino-N-(3-((5-(4-aminopiperidine-1-carbonyl)pyrrolo[2,1-f][1,2,4]triazin-4-yl)amino)phenyl)-4-methylpentanamide] here?
Its IC50 is 7710 nM.

How did the IC50 turn out when `COC(=O)c1cn2ncnc(Nc3cccc(-c4nnn(C(C)C)n4)c3)c2c1CN1CCC(N)CC1` [Example 111, methyl 5-((4-aminopiperidin-1-yl)methyl)-4-((3-(2-isopropyl-2H-tetrazol-5-yl)phenyl)amino)pyrrolo[2,1-f][1,2,4]triazine-6-carboxylate] was run?
The IC50 was 16 nM.
